Reference: ChEMBL document CHEMBL3588753, “Recent progress in the drug development of coumarin derivatives as potent antituberculosis agents” (2015)
Converted amounts (≈) assume the structure as drawn.

How the values were obtained:
Type in all cases: functional
[1] = tested on: Mycobacterium tuberculosis; assay: Antimycobacterial activity against Mycobacterium tuberculosis H37Rv assessed as growth inhibition by Alamar Blue staining-based broth microdilution assay; parameters: inhibition (INH): concentration or dose not given beside the values; details: for MIC: Mycobacterium tuberculosis, H37Rv
[2] = tested on: Mycobacterium tuberculosis; assay: Antimycobacterial activity against Mycobacterium tuberculosis H37Rv assessed as growth inhibition at 128 ug/ml by low-oxygen recovery assay
[3] = tested on: Mycobacterium tuberculosis; assay: Antimycobacterial activity against Mycobacterium tuberculosis H37Rv assessed as growth inhibition at 128 ug/ml by Alamar Blue staining-based broth microdilution assay
[4] = tested on: Mycobacterium tuberculosis; assay: Ratio of RIF IC50 to compound IC50 Mycobacterium tuberculosis H37Rv assessed as growth inhibition
[5] = tested on: Mycobacterium tuberculosis; assay: Ratio of GTFX IC50 to compound IC50 Mycobacterium tuberculosis H37Rv assessed as growth inhibition
[6] = tested on: Mycobacterium tuberculosis; assay: Ratio of CPFX IC50 to compound IC50 Mycobacterium tuberculosis H37Rv assessed as growth inhibition
[7] = tested on: Mycobacterium tuberculosis; assay: Ratio of 8-OCH3 IC50 to compound IC50 Mycobacterium tuberculosis H37Rv assessed as growth inhibition
[8] = tested on: Mycolicibacterium smegmatis; assay: Antimicrobial activity against Mycobacterium smegmatis
[9] = tested on: Mycobacterium tuberculosis; assay: Ratio of MXFX IC50 to compound IC50 Mycobacterium tuberculosis H37Rv assessed as growth inhibition
[10] = tested on: Mycolicibacterium fortuitum; assay: Antimycobacterial activity against Mycobacterium fortuitum
Mycolicibacterium phlei = assay: Antimycobacterial activity against Mycobacterium phlei
[11] = tested on: Mycobacterium tuberculosis; assay: Antimycobacterial activity against Mycobacterium tuberculosis H37Rv assessed as growth inhibition at 6.25 ug/ml by Alamar Blue staining-based broth microdilution assay

Structure (SMILES): O=c1ccc2c(O)c3ccoc3cc2o1 [BERGAPTOL]
- MIC [1]: 100 mg/L (≈ 495 µM)

Structure (SMILES): COc1ccc(C2NC(=O)Nc3c2c(=O)oc2ccc(C)cc32)cc1 (centres undefined)
- inhibition at 128 µg/mL [2]: 62%
- inhibition at 128 µg/mL [3]: 58%

Structure (SMILES): COc1ccc2cc(C(=O)CN3CCN(c4c(F)cc5c(=O)c(C(=O)O)cn(C6CC6)c5c4OC)CC3)c(=O)oc2c1
- MIC [1]: 0.25 mg/L (≈ 0.433 µM)
- Ratio IC50 [4]: 2
- Ratio IC50 [5]: 2
- Ratio IC50 [6]: 2
- Ratio IC50 [7]: 2
- MIC [8]: 6.25 mg/L (≈ 10.8 µM)
- Ratio IC50 [9]: 2

Structure (SMILES): COc1cc2oc(=O)ccc2cc1[C@H]1OC(=O)[C@]2(C)O[C@H]12
- MIC [1]: 50 mg/L (≈ 173 µM)

Structure (SMILES): CC(C)=CCC/C(C)=C/CC/C(C)=C/Cc1c(O)c2ccccc2oc1=O
- MIC [10]: 2 mg/L (≈ 5.46 µM)
- MIC [8]: 0.5 mg/L (≈ 1.36 µM)

Structure (SMILES): COc1ccc2ccc(=O)oc2c1C(CO)=C(C)C
- MIC [1]: 50 mg/L (≈ 192 µM)

Structure (SMILES): Cc1ccc(C)c2c(CC(=O)N/N=C/c3ccccc3[N+](=O)[O-])cc(=O)oc12
- inhibition (INH) [1]: 65%

Structure (SMILES): O=C(N/N=C/c1cccc(O)c1)c1cc2ccccc2oc1=O
- MIC [1]: 50 mg/L (≈ 162 µM)

Structure (SMILES): Cc1ccc(O)c(C(=O)c2ccc(-c3cc4cc(Br)ccc4oc3=O)nc2)c1
- MIC [1]: 100 mg/L (≈ 229 µM)

Structure (SMILES): O=C(Cc1cc(=O)oc2cc(O)ccc12)N/N=C/c1cccc([N+](=O)[O-])c1
- inhibition (INH) [1]: 93%

Structure (SMILES): C=CC(C)(C)c1c(O)c2c(c3ccc(=O)oc13)OC(C)(C)C=C2
- MIC [1]: 100 mg/L (≈ 320 µM)

Structure (SMILES): Cc1ccc(C)c2c(CC(=O)N/N=C/c3ccccc3)cc(=O)oc12
- inhibition (INH) [1]: 70%

Structure (SMILES): CC(=O)OC/C(C)=C/CC/C(C)=C/CC/C(C)=C/Cc1c(O)c2ccccc2oc1=O
- MIC (Mycolicibacterium phlei): 8 mg/L (≈ 18.8 µM)
- MIC [8]: 8 mg/L (≈ 18.8 µM)

Structure (SMILES): CN(C)c1ccc(/C=C/c2c(C#N)c(=O)oc3ccc(Cl)cc23)cc1
- inhibition (INH) [1]: 79%

Structure (SMILES): C=CC(C)(C)c1c2c(c(OC)c3ccc(=O)oc13)C=CC(C)(C)O2 [DENTATIN]
- MIC [1]: 50 mg/L (≈ 153 µM)

Structure (SMILES): O=c1cc(Nc2ccc3ccccc3c2)c2ccccc2o1
- inhibition at 6.25 µg/mL [11]: 81%

Structure (SMILES): C/C(=C\CC/C(C)=C/CC/C(C)=C/Cc1c(O)c2ccccc2oc1=O)CO
- MIC (Mycolicibacterium phlei): 16 mg/L (≈ 41.8 µM)
- MIC [8]: 16 mg/L (≈ 41.8 µM)

Structure (SMILES): COc1c2c(cc3oc(=O)c(-c4ccc(O)cc4)c(O)c13)OC(C)(C)C=C2
- MIC [8]: 18 mg/L (≈ 49.1 µM)

Structure (SMILES): Cc1cc(=O)oc2cc(OCc3cn(Cc4cc(=O)oc5ccc6ccccc6c45)nn3)ccc12
- MIC [1]: 6.25 mg/L (≈ 13.4 µM)

Structure (SMILES): COc1cccc2cc(-c3ccc(C(=O)c4cc(C)ccc4O)cn3)c(=O)oc12
- MIC [1]: 62.5 mg/L (≈ 161 µM)

Structure (SMILES): O=c1oc2ccccc2c(O)c1C1=Nc2ccccc2SC(c2ccc([N+](=O)[O-])cc2)C1 (centres undefined)
- inhibition at 6.25 µg/mL [11]: 93%

Structure (SMILES): COc1cc(/C=C/c2c(C#N)c(=O)oc3ccc(Cl)cc23)cc(OC)c1OC
- inhibition (INH) [1]: 87%

Structure (SMILES): O=C(CN1CCN(c2cc3c(cc2F)c(=O)c(C(=O)O)cn3C2CC2)CC1)c1cc2ccc(O)cc2oc1=O
- MIC [1]: 0.5 mg/L (≈ 0.937 µM)
- MIC [8]: 3.12 mg/L (≈ 5.85 µM)

Structure (SMILES): C=CC(C)(C)c1c2c(c(O)c3ccc(=O)oc13)C(=O)CC(C)(C)O2
- MIC [1]: 200 mg/L (≈ 609 µM)

Structure (SMILES): O=C(N/N=C/c1ccc([N+](=O)[O-])cc1)c1cc2ccccc2oc1=O
- MIC [1]: 100 mg/L (≈ 296 µM)

Structure (SMILES): COc1ccc(-c2cc(-c3ccc(Nc4cc(=O)oc5ccccc45)cc3)nc(N)c2C#N)cc1OC
- inhibition (INH) [1]: 99%
- MIC [1]: 12.5 mg/L (≈ 25.5 µM)

Structure (SMILES): Cc1cc(=O)oc2cc(OCc3cn(Cc4cc(=O)oc5ccc(Cl)cc45)nn3)ccc12
- MIC [1]: 6.25 mg/L (≈ 13.9 µM)

Structure (SMILES): C/C(=C\CC/C(C)=C/Cc1c(O)c2ccccc2oc1=O)CC/C=C(\C)COC(=O)c1ccccc1
- MIC (Mycolicibacterium phlei): 2 mg/L (≈ 4.11 µM)
- MIC [8]: 2 mg/L (≈ 4.11 µM)

Structure (SMILES): O=c1oc2ccccc2c(O)c1C1=Nc2ccccc2SC(c2ccccc2O)C1 (centres undefined)
- inhibition at 6.25 µg/mL [11]: 94%

Structure (SMILES): O=C1Nc2c(c(=O)oc3ccccc23)C(c2ccccc2O)N1 (centres undefined)
- inhibition at 128 µg/mL [2]: 37%
- inhibition at 128 µg/mL [3]: 45%

Structure (SMILES): Cc1cc(=O)oc2cc(OCc3cn(Cc4cc(=O)oc5cc(Cl)ccc45)nn3)ccc12
- MIC [1]: 6.25 mg/L (≈ 13.9 µM)

Structure (SMILES): O=c1oc2ccccc2c(O)c1C1=Nc2ccccc2SC(c2c[nH]c3ccccc23)C1 (centres undefined)
- inhibition at 6.25 µg/mL [11]: 80%

Structure (SMILES): Cc1ccc(O)c(C(=O)c2ccc(-c3cc4ccccc4oc3=O)nc2)c1
- MIC [1]: 100 mg/L (≈ 280 µM)

Structure (SMILES): COc1ccc(C2NC(=O)Nc3c2c(=O)oc2ccc(C)cc32)cc1OC (centres undefined)
- inhibition at 128 µg/mL [2]: 35%
- inhibition at 128 µg/mL [3]: 55%

Structure (SMILES): O=C(CSc1nnc(-c2cc3ccccc3oc2=O)o1)Nc1ccc(I)cc1
- inhibition (INH) [1]: 99%
- MIC [1]: 12.5 mg/L (≈ 24.7 µM)

Structure (SMILES): Cc1cc2oc(=O)cc(Nc3ccc4ccccc4c3)c2cc1Cl
- inhibition at 6.25 µg/mL [11]: 100%

Structure (SMILES): N#Cc1c(/C=C/c2cccc(-c3ccccc3)c2)c2cc(Cl)ccc2oc1=O
- inhibition (INH) [1]: 72%

Structure (SMILES): COc1cc2ccc(=O)oc2cc1O [SCOPOLETIN]
- MIC [1]: 42.1 mg/L (≈ 219 µM)

Structure (SMILES): O=C(c1ccncc1)n1nc(-c2ccc(F)cc2)cc1-c1cc2ccccc2oc1=O
- inhibition (INH) [1]: 80.09%
- MIC [1]: 0.625 mg/L (≈ 1.52 µM)

Structure (SMILES): O=C(CSc1nnc(-c2cc3ccccc3oc2=O)o1)Nc1nc2ccc(Br)cc2s1
- inhibition (INH) [1]: 99%
- MIC [1]: 12.5 mg/L (≈ 24.3 µM)

Structure (SMILES): N#Cc1c(/C=C/c2c3ccccc3cc3ccccc23)c2cc(Cl)ccc2oc1=O
- inhibition (INH) [1]: 81%
